# Experimental data: patent publication US20100216891A1, “AROMATIC ANTIHYPERTENSIVE AGENT, AND METHOD FOR LOWERING BLOOD PRESSURE IN MAMMALS” (PANASONIC CORPORATION, priority 2008, published 2010)
# Test system: male Wister strain rats
# Test: Test Example 1: change in blood pressure of rats on presentation of aromatic compositions to the nostril
# Type: in vivo
# Settings: rat, aroma presented to vicinity of nostril for 10 minutes, 30 minutes after the presentation, FIG. 1
# Procedure: Focusing attention on aromatic components contained in a Melissa essential oil, one of plant essential oils, various aromatic compositions were presented to male Wister strain rats, and evaluation of change in caudal arterial pressure before and after the presentation was conducted. The test was carried out under conditions that avoid stress which may be placed on the rat as less as possible, and thus can be kept calm in an environment of the measurement of the blood pressure.
# Male Wister strain rats of 7-week old were purchased, and after one week acclimatization period, the blood pressure was measured on 8-week old. All experimental animals were kept under a 12:12 light-dark cycle (light period: from 8 AM to 8 PM), with allowing for free access to chow and drinking water.
# Training for adaptation of the 7-week old rat to a holder for the blood pressure measurement was carried out for one week. […]
# For three days after completing the training, change in the blood pressure was measured upon presentation of the aromatic composition to the rats. […] The blood pressures before and after 30 minutes from presenting the aromatic compositions were measured, and the changes of the blood pressures were compared. […]
smiles,measurement,value
CC(C)=CCCC(C)=CC=O [citral],change in diastolic blood pressure (caudal arterial pressure) after presentation compared with the values before the presentation,lowering of the blood pressure
C=CC(C)(O)CCC=C(C)C (centres unmarked) [linalool],change in diastolic blood pressure (caudal arterial pressure) after presentation compared with the values before the presentation,lowering of the blood pressure
